# Experimental data: patent US9279107B2, “Simplified basic media for human pluripotent cell culture” (WISCONSIN ALUMNI RESEARCH FOUNDATION, priority 2010, dated 2016)
# How the values were obtained:
# [1] = test system: foreskin cells; test: Reprogramming of foreskin fibroblasts to iPS cells; assay type: cell-based, human
# Method: Available reprogramming protocols include incubation of the cells in FBS in the first several days after viral transduction or electroporation, prior to switching the cells to UM100 (U.S. Pat. No. 7,439,064, incorporated herein as if set forth in its entirety) or CM. The simplified media described in previous Examples were tested for their ability to support reprogramming.
# To determine if DF5S-based media can be used for viral-free iPS cell derivation, foreskin cells were reprogrammed using a viral-free episomal vector, as described in Yu et al., Science 324:797 (2009), incorporated herein by reference as if set forth in its entirety, at hypoxic conditions (O5C10).
# Plasmid combinations #6 and #19 were used for the reprogramming. In order to enhance the plasmid entry into the nucleus, ENBA mRNA was electroporated along with plasmid DNA. Around one million cells were transferred onto two 6-well plates in DF5SFeC for 5 days. Medium was then switched to DF5SFe for another 18-25 days. Cells of some of the wells were passaged for a second time using a 1:6 ratio at different time points.
# [2] = test system: human fibroblasts; test: Reprogramming efficiency of human fibroblasts in E8-based medium; assay type: cell-based; details: E8 versus MEF feeder cells or TeSR; butyrate 100 μM with or without TGF-β
# [3] = test system: H1 cells; test: Cloning efficiency of H1 cells; assay type: cell-based, human
# Method: FIG. 2 A-F illustrate optimization of human ES cell and iPS cell culture conditions with DF5S. […] Cell survival was examined at 24 hours and 124 hours. […] DF5S trFe indicates DF5S media to which holotransferrin was added. FIG. 2E illustrates the cloning efficiency of H1 cells cultured in various media in the presence of HA100 (10 μM, 24 hours), blebbistatin (10 μM, 4 hours), or Y27632 (10 μM, 24 hours), compared to cloning efficiency in the absence of these factors (control). Asterisks indicate p<0.05. FIG. 2F illustrates cloning efficiency of H1 cells in conditioned medium (CM), CM with ROCK inhibitor (HA100), TeSR with ROCK inhibitor, and E8 with ROCK inhibitor in normoxic (dark gray bars) or hypoxic (light gray bars) conditions. Error bars indicate the standard error of the mean; asterisks indicate p<0.05.
# To determine cloning efficiency at various oxygen and CO2 concentrations, 500 cells were seeded into each well. Even at low oxygen, cloning efficiency was too low (<2%) to determine effects of various conditions on cloning. HA100, a ROCK inhibitor known to increase cloning efficiency, was used to increase cloning efficiency for testing oxygen and CO2 concentrations. Conditioned medium (CM), known to be the best medium for cloning, was used as control.
# The cells maintained a normal karyotype after more than 25 passages.
# [4] = test system: iPS cells; test: Cloning efficiency of iPS cells; assay type: cell-based, human; details: about 500 cells per well, in the presence of HA100, DF5S-based media versus TeSR or CM
# Method: To determine how DF5S affects cloning efficiency, two iPS cell lines were grown in DF5S and plated at cloning density (approximately 500 cells per 12-well plate well) in the presence of HA100. […] To identify such factor, individual TeSR™ components were added individually to DF5S and tested for effect on cloning efficiency.
# [5] = test system: foreskin cells; test: Foreskin cell growth in DF5SFe-based media; parameters: species or system human
# Method: To determine growth factors that can help primary foreskin cell growth, individual growth factors contained in FBS were tested. The FGF family of growth factors has several members, one or more of which is commonly used for fibroblast culture. DF5SFe contains 100 ng/ml zebrafish recombinant FGF2. Each FGF family member was tested for its ability to support foreskin cell growth. Foreskin cells were aliquoted into the well of culture plates and incubated for 24 hours in DF5SFe minus FGF. Individual FGF types were added at 100 ng/ml for 96 h.
# [6] = test system: H1 ES cells; test: Short term growth / proliferation after passaging; assay type: cell-based, human; details: for cell proliferation after passaging: factor added to DMEM/F12, NaHCO3, insulin and FGF, L-ascorbic acid 64 mg/L
# Method: (§1) Five-hundred micro liter of various test media was loaded into each well of 12-well plates prior to the addition of cells. Adherent pluripotent cells were dissociated with TrypLE (Invitrogen) for 5 minutes or until fully detached from the culture plates. TrypLE was neutralized by adding an equal volume of media to the culture. The cells were counted, washed, and resuspended in fresh media at a concentration of 300,000 to 1,000,000 cells/ml. Approximately 100 μl of this cell solution was added into each well of the 12-well plates and the cells were incubated at 37° C. with 5% O2 and 10% CO2. Cells were again dissociated at various time points using 0.4 ml TrypLE, which was subsequently neutralized with equal volumes of 10% FBS in DMEM. The cells were counted by flow cytometry. 5000 count bright beads were added to each sample as internal control (approximately 200 beads were counted for each sample). All experiments were performed in triplicates.
# TeSR medium contains six growth factors, in addition to those present in the basal medium, fibroblast growth factor (FGF), transforming growth factor beta (TGF-β), γ-aminobutyric acid (GABA), pipecolic acid, lithium chloride (LiCl), and insulin (Table 1). A basic nutrient medium (NM) was created containing all TeSR™ components with the exception of these six growth factors. About 2×10^5 H1 ES cells were dissociated and plated on Matrigel. The survival index was determined after 24 h. […] Thus, NM supplemented with FGF and Insulin supports human ES cell culture. Twelve different basal nutrient media supplemented as described above were able to support cell survival and growth (FIG. 1E).
# NM contains 11 nutritional components, i.e., DMEM/F12, trace elements B, trace elements C, L-ascorbic acid, thiamine, selenium, L-glutamine, BSA, BME, sodium bicarbonate (NaHCO3), and transferrin (Table 1). […]
# H1 cells grew faster in the DF5S medium compared to cells grown in TeSR™ (FIGS. 1C and 2A). […] To increase assay sensitivity only 5,000 cells were seeded in each well and analyzed for survival (24 h) and proliferation (124 h). […]
# [7] = test system: H1 cells; test: Extended passage of cells in simplified media; assay type: cell-based, human; details: DF5, or nutritional factor added individually to DF5
# [8] = test system: H1 ES cells; test: ES cell survival in mTeSR without insulin; assay type: cell-based, human; details: for cell survival: 30 ng/ml added at 0 hour; for cell survival, dosage response: low concentration (e.g., 3 ng/ml), 24 hours
# Method: Pluripotent cell survival assays were carried out as described in Example 1. Media tested included mTeSR and mTeSR […]. IGF1R is known to be activated by insulin, IGF1 and IGF2 (Nguyen et al., Reproduction 134:41-49 (2007)). Accordingly, the inventors designed and carried out experiments to test how IGF1 or IGF2 could affect ES cell survival. Individualized H1 ES cells were plated in mTeSR™ with or without insulin (Sigma). IGF1 (30 ng/ml) and IGF2 (30 ng/ml) were added to media at 0 hour. […] Dosage response assays were conducted to determine useful concentrations of IGF1, IGF2, and Long-IGF-1 (Sigma) in pluripotent cell maintenance medium. Individualized H1 ES cells were plated in mTeSR without insulin, IGF1, IGF2 and Long-IGF1 were added at 0 hour, and cell survival was measured after 24 hours.
# [9] = test system: H1 ES cells; test: ES cell proliferation after insulin replacement; assay type: cell-based, human; details: insulin replaced after 24 hours with 30 ng/ml; feeder-free culture
# Method: To determine whether IGF1 and IGF2 are sufficient to support ES cell proliferation in the absence of insulin, individualized H1 ES cells were plated onto Matrigel plates in TeSR (with insulin) for the first 24 hours. Then insulin was either removed or replaced with IGF1 (30 ng/ml) and IGF2 (30 ng/ml). Cell numbers were measured at specific time points, and the fold change in cell numbers was normalized to the cell counts at the time when insulin was first replaced.
# [10] = test system: H1 ES cells; test: Pluripotent cell survival assay (24 h survival index after dissociation); assay type: cell-based, human; details: basic nutrient medium NM with or without additions, H1 ES cells on Matrigel
# Method: as §1, with “triplicates. TeSR medium contains six growth factors, in addition to those present in the basal medium, fibroblast growth factor (FGF), transforming growth factor beta (TGF-β), γ-aminobutyric acid (GABA), pipecolic acid, lithium chloride (LiCl), and insulin (Table 1). A basic nutrient medium (NM) was created containing all TeSR™ components with the exception of these six growth factors. […] The survival index was determined after 24 h. […]” for “triplicates.”
# [11] = in E8, HA100 10 μM 24 h, blebbistatin 10 μM 4 h, Y27632 10 μM 24 h, versus control
molecule,measurement,setting,value
"CCCC(=O)[O-].[Na+] [Butyrate, sodium butyrate]",number of colonies during reprogramming,[1]; foreskin fibroblasts,did not increase the number of colonies
same,ratio of true iPS cell to non-iPS cell colonies,[1]; foreskin fibroblasts,improved the ratio of true iPS cell to non-iPS cell colonies significantly
same,reprogramming efficiency,[1]; reagent added to reprogramming media,improved reprogramming efficiency
same,reprogramming efficiency,[2],further enhanced reprogramming efficiency
O=S(=O)(c1cccc2cnccc12)N1CCNCC1 [HA100],cloning efficiency,[3]; [11],increased cloning efficiency
same,cloning efficiency,"[3]; in conditioned medium (CM), at both O5C10 and O15C5, 500 cells per well",significantly improved cloning efficiency
"C[C@]12CCC(=O)C=C1CC[C@@H]1[C@@H]2[C@@H](O)C[C@@]2(C)[C@H]1CC[C@]2(O)C(=O)CO [Hydrocortisone, reference compound]",cloning efficiency,[4],improved iPS cell cloning efficiency
same,foreskin cell growth,[5]; added to DF5SFe to replace FBS,improved cell growth significantly
O=C(O)[C@@H]1C[C@@H](O)CN1 [Hydroxyproline],cell proliferation after passaging,[6],could partially substitute for L-ascorbic acid
O=C1O[C@H]([C@@H](O)CO)C(O)=C1O [L-ascorbic acid],cell proliferation after passaging,[6],necessary for cell proliferation after passaging
C[C@@H](N)[C@H]1CC[C@H](C(=O)Nc2ccncc2)CC1 [Y27632],cloning efficiency,[3]; [11],increased cloning efficiency
Cc1ccc2c(c1)C(=O)C1(O)CCN(c3ccccc3)C1=N2 (stereo not shown) [blebbistatin],cloning efficiency,[3]; [11],increased cloning efficiency
[Se] [selenium],cell growth / proliferation through multiple passages,[7],sufficient to support cell proliferation through multiple passages
FGF1: FGF family member growth factor,foreskin cell growth,[5]; individual FGF added at 100 ng/ml for 96 h to DF5SFe minus FGF,supported foreskin cell growth most effectively
IGF1: ligand of the IGF1R receptor,cell survival,[8],rescued cell survival in the absence of insulin
same,"cell survival, dosage response",[8],can support hES cell survival in the absence of insulin
same,cell proliferation,[9],able to support cell proliferation
IGF2: ligand of the IGF1R receptor,cell survival,[8],rescued cell survival in the absence of insulin
same,"cell survival, dosage response",[8],can support hES cell survival in the absence of insulin
same,cell proliferation,[9],able to support cell proliferation
holo-transferrin,cloning efficiency,"[3]; H1 cells in DF5S medium, transferrin added",noticeable improvement of cloning efficiency
same,cloning efficiency,[3]; [11],further increased
same,cloning efficiency,[4],cloning efficiency comparable to that using TeSR™
insulin,cell survival after dissociation (survival index),[10],cell survival similar to that observed with TeSR™
same,cell growth,"[6]; added to NM, insulin 20 ug/ml, FGF2 100 ng/ml, 96 h, compared with TeSR",did not support cell growth
